Where two headings read alike, the source gives them in different places.
Columns and labels:
HiBiT tagged CK1α = HiBiT tagged CK1α (Homo sapiens, UniProt P48729+Q96SW2); assay: CK1α degradation assay (HiBiT assay); format: cell-based; conditions: 20 hours; for Dmax: HT-1080, HT-1080 cells; for Dmax / HiBiT CK1α: Dmax: maximum CK1α degradation; for DC50 / HiBiT CK1α: Dmax: HT-1080 cells; for DC50: concentration at 50% CK1α degradation
In short: (§1)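 HT-1080 cells stably expressing wild-type CRBN, GSPT1A(1-138)/G575N and HiBiT-tagged CK1α or GSPT1, ~10,000/well, treated with compound from 3.162×10^-4 μM to 10 μM (3.16-fold steps). HiBiT luminescence normalized to DMSO as percent of control.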

HiBiT tagged GSPT1 = HiBiT tagged GSPT1 (Homo sapiens, UniProt P15170+Q96SW2); assay: GSPT1 degradation assay (HiBiT assay); format: cell-based; conditions: 20 hours, maximum GSPT1 degradation; for Dmax: HT-1080, HT-1080 cells; for HiBiT GSPT1: Dmax: HT-1080 cells
Chain of HiBiT tagged GSPT1 (P15170 whole entry): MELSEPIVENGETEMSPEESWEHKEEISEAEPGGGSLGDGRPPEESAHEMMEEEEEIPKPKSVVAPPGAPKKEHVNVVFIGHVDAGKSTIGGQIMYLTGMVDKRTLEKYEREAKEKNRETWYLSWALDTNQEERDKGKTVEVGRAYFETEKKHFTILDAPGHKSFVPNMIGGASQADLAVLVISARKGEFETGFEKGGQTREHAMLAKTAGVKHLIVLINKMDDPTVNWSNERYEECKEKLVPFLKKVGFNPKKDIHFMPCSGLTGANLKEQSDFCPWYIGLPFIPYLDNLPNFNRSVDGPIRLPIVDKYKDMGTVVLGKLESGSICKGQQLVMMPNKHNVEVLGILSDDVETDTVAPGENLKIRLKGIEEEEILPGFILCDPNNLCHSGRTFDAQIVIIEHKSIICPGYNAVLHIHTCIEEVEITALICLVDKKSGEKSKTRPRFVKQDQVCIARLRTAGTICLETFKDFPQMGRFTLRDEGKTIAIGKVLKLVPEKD
Chain of HiBiT tagged GSPT1 (Q96SW2 whole entry): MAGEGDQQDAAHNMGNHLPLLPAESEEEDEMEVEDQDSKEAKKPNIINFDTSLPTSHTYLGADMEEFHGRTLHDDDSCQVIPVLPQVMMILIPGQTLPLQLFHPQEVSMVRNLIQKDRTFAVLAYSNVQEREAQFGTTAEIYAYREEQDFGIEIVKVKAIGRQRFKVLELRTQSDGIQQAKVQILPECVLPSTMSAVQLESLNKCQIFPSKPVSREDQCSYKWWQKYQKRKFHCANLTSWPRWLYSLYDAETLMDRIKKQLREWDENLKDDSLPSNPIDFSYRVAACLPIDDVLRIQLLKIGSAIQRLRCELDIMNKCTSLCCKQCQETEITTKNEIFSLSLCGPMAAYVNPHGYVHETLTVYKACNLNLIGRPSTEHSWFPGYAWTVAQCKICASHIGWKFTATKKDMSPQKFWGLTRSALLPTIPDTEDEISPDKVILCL
Chain of HiBiT tagged GSPT1 (Q16531 whole entry partner): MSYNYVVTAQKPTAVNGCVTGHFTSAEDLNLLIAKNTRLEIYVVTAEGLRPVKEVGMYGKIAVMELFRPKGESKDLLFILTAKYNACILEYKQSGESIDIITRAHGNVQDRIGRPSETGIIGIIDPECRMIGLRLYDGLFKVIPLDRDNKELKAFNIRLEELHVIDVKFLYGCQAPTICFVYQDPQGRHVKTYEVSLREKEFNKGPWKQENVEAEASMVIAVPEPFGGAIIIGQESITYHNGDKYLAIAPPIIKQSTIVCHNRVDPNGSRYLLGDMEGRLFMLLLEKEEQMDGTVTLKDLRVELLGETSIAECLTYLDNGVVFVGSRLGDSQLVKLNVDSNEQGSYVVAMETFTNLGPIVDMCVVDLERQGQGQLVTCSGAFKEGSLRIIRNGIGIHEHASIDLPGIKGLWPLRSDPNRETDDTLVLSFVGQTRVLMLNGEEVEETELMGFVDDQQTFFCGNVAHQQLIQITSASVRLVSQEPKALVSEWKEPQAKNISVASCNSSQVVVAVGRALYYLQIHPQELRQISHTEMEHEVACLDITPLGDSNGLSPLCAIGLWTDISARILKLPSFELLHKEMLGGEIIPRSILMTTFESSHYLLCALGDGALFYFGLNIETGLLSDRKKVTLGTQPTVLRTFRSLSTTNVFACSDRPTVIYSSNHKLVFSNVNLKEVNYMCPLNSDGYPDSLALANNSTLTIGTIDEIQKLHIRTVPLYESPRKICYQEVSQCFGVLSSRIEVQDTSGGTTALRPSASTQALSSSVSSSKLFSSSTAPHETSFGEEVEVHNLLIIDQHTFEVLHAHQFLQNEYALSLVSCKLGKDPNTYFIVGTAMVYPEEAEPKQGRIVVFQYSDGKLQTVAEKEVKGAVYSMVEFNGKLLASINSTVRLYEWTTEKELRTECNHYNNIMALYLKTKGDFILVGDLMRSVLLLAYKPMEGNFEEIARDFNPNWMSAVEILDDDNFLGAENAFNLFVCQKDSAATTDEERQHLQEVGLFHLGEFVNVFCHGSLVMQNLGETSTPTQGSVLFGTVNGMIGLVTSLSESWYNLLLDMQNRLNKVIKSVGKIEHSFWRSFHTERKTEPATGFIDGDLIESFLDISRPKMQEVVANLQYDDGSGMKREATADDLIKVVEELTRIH
In short: as §1

MV4-11 cells = assay: MV4-11 cell proliferation assay (CTG cell viability); format: cell-based; conditions: 120 hours, read-out: CTG cell viability assay_MV4-11: IC50
Method: MV4-11 Cell Proliferation Assay
The following is an example of an assay that can be used to determine the dose-dependent, anti-proliferative activity of CK1α degradating compounds in an AML cell line such as MV4-11 (ATCC Cat #CRL-9591).
(§2) MV4-11 cells were seeded into a 384-well plate (Cat #3764, Corning) pre-spotted with DMSO or test compounds. Increasing concentrations of test compounds (ranging from 1×10^−3 μM to 10 μM at a 3.162-fold increment in a 10-point dose response assay; ranging from 3.162×10^−4 μM to 10 μM at a 3.162-fold increment in a 11-point dose response assay) or DMSO were dispensed into an empty 384-well plate using an a D300e digital dispenser (Tecan) or an Echo Acoustic Liquid Handler (Beckman Coulter). About 2,000 cells in 50 μL of culture media (IMDM plus 10% heat-inactivated FBS) were seeded per well. Assay plates were incubated at 37° C. with 5% CO2 for 120 hours. After that, 20 μL of the CellTiter-Glo Luminescent Cell Viability Assay Reagent (Cat #G7573, Promega) was added to each well and incubated at room temperature for 30 minutes. Luminescence was then measured with an EnVision plate reader (PerkinElmer) or a PHERAstar plate reader (BMG LABTECH). All cell growth inhibition curves were processed using Collaborative Drug Discovery Vault softwares (Burlingame, CA, www.collaborativedrug.com).
Cell viability reads in compound-treated wells were normalized to that of DMSO control and expressed as Percent of Control (PoC, y). A four Parameter Logistic Model was used to determine the compound's EC50 and DC50, using the following equation:
[formula] • A==lowest cell viability read normalized to DMSO control in response to compound treatment, as determined by curve fit • B=cell viability read in DMSO control • C=EC50 • D=Hill Slope • x=compound concentration • EC50=the concentration of compound when y=(B−A)/2 • IC50=the concentration of the compound when y=50% of DMSO control • y=cell viability read normalized to DMSO control Ymin=(A/B)*100% • Ymin represents the lowest cell viability % that can be achieved by the compound treatment in the assay.

[1] = Pharmacokinetic study of single intravenous and oral administration in mouse; format: in vivo; conditions: for C0 / clearance / half-life / Vd / AUC(0-inf) / Cmax / Tmax: plasma; for Vd: read-out: Vss
Method: The pharmacokinetic study of single intravenous and oral administration in mouse Sample collection and preparation: After intravenous injection or oral administration of test compounds, blood samples were collected and the blood collection time was recorded. After the blood sample was collected, it was immediately transferred into a labeled centrifuge tube containing K2-EDTA, followed by centrifugation and plasma collection. The plasma was then transferred into a pre-cooled centrifuge tube, quickly frozen on dry ice, and stored in an ultra-low temperature refrigerator at −70±10° C. until the LC-MS/MS analysis was performed.
Pharmacokinetic data analysis: The pharmacokinetic software was used to process the plasma drug concentration data of the compound in a non-compartmental model. The peak concentration (Cmax), peak time (Tmax) and quantifiable end time can be directly obtained from the plasma concentration-time diagram. The log-linear trapezoidal method was used to calculate the following pharmacokinetic parameters: half-life (T1/2), apparent volume of distribution (Vdss) and clearance (Cl), and the area under the time-plasma concentration curve (AUC0-inf) from the 0 point to the end point.

[2] = KG-1a cell proliferation assay (CTG cell viability, counter screen for GSPT1-mediated cytotoxicity); format: cell-based; conditions: human, KG-1a cells (AML cell line harboring p53 mutation), lowest cell viability, highest concentration 10 μM, read-out: CTG cell viability assay KG1a: Ymin
Excerpt: (§3) KG-1a Cell Proliferation Assay
(§4) On the other hand, most AML cell lines were reported to be sensitive to GSPT1 degradation induced by CC-885 or CC-90009 regardless of their p53 mutational status (Matyskiela et al., Nature (2016) 535:252-257; Surka et al., Blood (2021) 137 (5): 661-677). Because the subtle to moderate degradation of GSPT1 induced by CK1α degraders with mild activity towards GSPT1 might still result in toxicity in human, a counter screen using an AML cell line harboring p53 mutation such as KG-1a (ATCC Cat #CCL-246.1), was performed to determine the GSPT1-mediated cytotoxicity in vitro.
as §2, with “The following is an example of an assay that can be used to determine the potential GSPT1-dependent cytotoxcity of test compounds that degrade GSPT1. KG-1a cells” for “MV4-11 cells”, “[…]” for “1×10^−3 μM”, “[…]” for “3.162×10^−4 μM”, “with” for “with an”, “EnVision Multimode Plate Reader” for “EnVision plate reader”, “www.collaborativedrug.com). Cell viability reads in compound-treated wells were normalized to that of DMSO control and expressed as Percent of Control (PoC, y). A four Parameter Logistic Model was used to determine the compound's EC50 and DC50, using the following equation: […]” for “www.collaborativedrug.com).”

KG-1a cells = assay: as above; format: cell-based; conditions: 120 hours, lowest cell viability, highest concentration 10 μM
Excerpt: as §3, §4
as §2, with “The following is an example of an assay that can be used to determine the potential GSPT1-dependent cytotoxcity of test compounds that degrade GSPT1. KG-1a cells” for “MV4-11 cells”, “[…]” for “1×10^−3 μM”, “[…]” for “3.162×10^−4 μM”, “with” for “with an”, “EnVision Multimode Plate Reader” for “EnVision plate reader”, “www.collaborativedrug.com). Cell viability reads in compound-treated wells were normalized to that of DMSO control and expressed as Percent of Control (PoC, y). A four Parameter Logistic Model was used to determine the compound's EC50 and DC50, using the following equation: […]” for “www.collaborativedrug.com).”

Chain of HiBiT tagged CK1α (P48729 whole entry): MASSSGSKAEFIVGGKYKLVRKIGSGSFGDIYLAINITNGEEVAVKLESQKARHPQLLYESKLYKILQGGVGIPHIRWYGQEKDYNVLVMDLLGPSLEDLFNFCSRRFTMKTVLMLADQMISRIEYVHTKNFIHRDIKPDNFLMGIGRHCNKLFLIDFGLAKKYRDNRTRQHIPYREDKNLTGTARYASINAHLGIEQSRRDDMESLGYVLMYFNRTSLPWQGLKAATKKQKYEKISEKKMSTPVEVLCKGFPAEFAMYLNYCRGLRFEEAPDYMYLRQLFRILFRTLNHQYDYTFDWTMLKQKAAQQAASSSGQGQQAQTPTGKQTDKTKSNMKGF
Chain of HiBiT tagged CK1α (Q96SW2 whole entry): as the sequence (Q96SW2 whole entry) above
Chain of HiBiT tagged CK1α (Q16531 whole entry partner): as the sequence (Q16531 whole entry partner) above

Dmax (HiBiT tagged CK1α) [%]	Dmax (HiBiT tagged GSPT1) [%]	IC50 (MV4-11 cells; Homo sapiens) [µM]	C0 ([1]; 2 mg/kg, IV) [µg/mL]	clearance ([1]; 2 mg/kg, IV) [L/h/kg]	half-life ([1]; 2 mg/kg, IV) [h]	Vd ([1]; 2 mg/kg, IV) [L/kg]	AUC(0-inf) ([1]; 10 mg/kg, PO) [µg·h/mL]	Cmax ([1]; 10 mg/kg, PO) [µg/mL]	Tmax ([1]; 10 mg/kg, PO) [h]	half-life ([1]; 10 mg/kg, PO) [h]	DC50 (HiBiT tagged CK1α) [µM]	F ([1]; 10 mg/kg, PO) [%]	HiBiT CK1α: Dmax (HiBiT tagged CK1α) [%]	HiBiT GSPT1: Dmax (HiBiT tagged GSPT1) [%]	IC50 (MV4-11 cells) [µM]	Structure (SMILES)	viability at 120 h, 10 µM [2] [%]	CTG cell viability assay KG1a: Ymin (KG-1a cells) [%]
66.3	16.2	0.06	6.8	0.63	1.34	0.85	13.3	6.08	0.67	2.03						O=C1CC[C@H](N2Cc3cc(C(=O)N[C@H](c4ccc(Cl)cn4)C4CCC4)ccc3C2=O)C(=O)N1 (single isomer, unassigned) [Compound 82]		
63	18.2	0.142	4.91	0.471	3.62	0.87	14.9	5.69	0.5	2.12	0.193	70.4				O=C1CCC(N2Cc3cc(C(=O)N[C@H](c4ccc(F)cn4)C4(F)CCC4)ccc3C2=O)C(=O)N1 (stereo in doubt) [Compound 86, 2-(2,6-dioxopiperidin-3-yl)-N-((*R)-(1-fluorocyclobutyl)(5-fluoropyridin-2-yl)methyl)-1-oxoisoindoline-5-carboxamide]		
63.4	31.1	0.262									0.183					O=C1CCC(N2Cc3cc(C(=O)NC(c4ccc(F)cc4)C4CC(F)(F)C4)ccc3C2=O)C(=O)N1 (stereo not shown) [Compound 4, N-((3,3-difluorocyclobutyl)(4-fluorophenyl)methyl)-2-(2,6-dioxopiperidin-3-yl)-1-oxoisoindoline-5-carboxamide]	90.9	
70.5	24.9	0.115	1.86	1.38	2.84	3.2	5.87	1.57	0.83	2.72	0.0824	76.8				O=C1CCC(N2Cc3cc(C(=O)N[C@H](c4ccc(F)cc4F)C4CCC4)ccc3C2=O)C(=O)N1 (stereo in doubt) [Compound 41, N-((*S)-cyclobutyl(2,4-difluorophenyl)methyl)-2-(2,6-dioxopiperidin-3-yl)-1-oxoisoindoline-5-carboxamide]		
											0.0817		71.8	28.6	0.112	O=C1CCC(N2Cc3cc(C(=O)N[C@H](c4ccc(F)cc4)C4CCC4)ccc3C2=O)C(=O)N1 (stereo in doubt) [Compound 7, N—((*S)-cyclobutyl(4-fluorophenyl)methyl)-2-(2,6-dioxopiperidin-3-yl)-1-oxoisoindoline-5-carboxamide]		91.7
67	14.8	0.198									0.0947					O=C1CCC(N2Cc3cc(C(=O)N[C@H](c4ccc(Cl)cc4)C4CC(F)(F)C4)ccc3C2=O)C(=O)N1 (stereo in doubt) [Compound 35, N-((*S)-(4-chlorophenyl)(3,3-difluorocyclobutyl)methyl)-2-(2,6-dioxopiperidin-3-yl)-1-oxoisoindoline-5-carboxamide]	92.1	
57.7	40.8	0.42									1.15					O=C1CCC(N2Cc3cc(C(=O)N[C@@H](c4ccc(F)cc4F)C4CCC4)ccc3C2=O)C(=O)N1 (stereo in doubt) [Compound 42, N-((*R)-cyclobutyl(2,4-difluorophenyl)methyl)-2-(2,6-dioxopiperidin-3-yl)-1-oxoisoindoline-5-carboxamide]		
											0.219		64.4	23.5	0.071	O=C1CCC(N2Cc3cc(C(=O)N[C@H](c4ccc(Cl)cn4)C4CCC4)ccc3C2=O)C(=O)N1 (stereo in doubt) [Compound 76, N—((*S)-(5-chloropyridin-2-yl)(cyclobutyl)methyl)-2-(2,6-dioxopiperidin-3-yl)-1-oxoisoindoline-5-carboxamide]		
											0.16		72.9	23.4	0.205	O=C1CC[C@@H](N2Cc3cc(C(=O)N[C@H](c4ccc(F)cc4)C4CCC4)ccc3C2=O)C(=O)N1 (relative stereo) [Compound 8, N—((*S)-cyclobutyl(4-fluorophenyl)methyl)-2-((R)-2,6-dioxopiperidin-3-yl)-1-oxoisoindoline-5-carboxamide]		
60.9	30.1	0.691														O=C1CCC(N2Cc3cc(C(=O)N[C@H](c4ccc(F)cc4)C4CC(F)(F)C4)ccc3C2=O)C(=O)N1 (single isomer, unassigned) [Compound 6]		
75.9	30.3	0.363														O=C1CCC(N2Cc3cc(C(=O)N[C@@H](c4ccc(F)cc4)C4CC(F)(F)C4)ccc3C2=O)C(=O)N1 (single isomer, unassigned) [Compound 5]		
